Test results taken from the supplement of paper PMC6004109.

Experiments:
Conditions in all cases: temperature: 37 °C
[1] = system: Candida glabrata ATCC 2001 (YPD); test: FICI minimum (fractional inhibitory concentration index, Loewe) (dimensionless); higher = less synergy / more antagonism
Method: (§1)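 CLSI M27-A3 checkerboard broth microdilution of an immunomodulatory drug (or amoxicillin) combined with an antifungal against S. cerevisiae and C. glabrata isolates. Growth was read as OD600 after incubation at 37 °C (48 h for the reported MICs). Reported quantities are the FICI (Loewe: MIC50 for azoles and immunomodulators, MIC90 for AMB; ≤0.5 synergy, ≥4 antagonism), as minimum and maximum over the surface, and the Bliss-independence sum of statistically significant ΔE (positive = synergy). Clinical isolates were tested in RPMI; C. glabrata ATCC 2001 and its pdr1Δ mutant were tested in YPD.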

[2] = system: Candida glabrata ATCC 2001 (YPD); test: FICI maximum (fractional inhibitory concentration index, Loewe) (dimensionless); higher = less synergy / more antagonism
Method: as §1

[3] = system: Candida glabrata ATCC 2001 (YPD); test: Bliss independence sum of statistically significant ΔE (measured minus predicted growth inhibition) over checkerboard surface (fraction (sum of ΔE; 1 = 100%)); higher = more synergy
[4] = system: Candida glabrata ZIM 2344 (RPMI); test: FICI minimum (fractional inhibitory concentration index, Loewe) (dimensionless); higher = less synergy / more antagonism
Method: as §1

[5] = system: Candida glabrata ZIM 2365 (RPMI); test: as above
Method: as §1

[6] = system: Candida glabrata ZIM 2369 (RPMI); test: as above
Method: as §1

[7] = system: Candida glabrata ZIM 2382 (RPMI); test: as above
Method: as §1

[8] = system: Candida glabrata ZIM 2385 (RPMI); test: as above
Method: as §1

[9] = system: Candida glabrata ZIM 2389 (RPMI); test: as above
Method: as §1

[10] = system: Saccharomyces cerevisiae ZIM 2247 (RPMI); test: as above
Method: as §1

[11] = system: Saccharomyces cerevisiae ZIM 2255 (RPMI); test: as above
Method: as §1

[12] = system: Saccharomyces cerevisiae ZIM 2269 (RPMI); test: as above
Method: as §1

[13] = system: Saccharomyces cerevisiae ZIM 2558 (RPMI); test: as above
Method: as §1

[14] = system: Saccharomyces cerevisiae ZIM 2566 (RPMI); test: as above
Method: as §1

[15] = system: Candida glabrata ZIM 2344 (RPMI); test: FICI maximum (fractional inhibitory concentration index, Loewe) (dimensionless); higher = less synergy / more antagonism
Method: as §1

[16] = system: Candida glabrata ZIM 2365 (RPMI); test: as above
Method: as §1

[17] = system: Candida glabrata ZIM 2369 (RPMI); test: as above
Method: as §1

[18] = system: Candida glabrata ZIM 2382 (RPMI); test: as above
Method: as §1

[19] = system: Candida glabrata ZIM 2385 (RPMI); test: as above
Method: as §1

[20] = system: Candida glabrata ZIM 2389 (RPMI); test: as above
Method: as §1

[21] = system: Saccharomyces cerevisiae ZIM 2247 (RPMI); test: as above
Method: as §1

[22] = system: Saccharomyces cerevisiae ZIM 2255 (RPMI); test: as above
Method: as §1

[23] = system: Saccharomyces cerevisiae ZIM 2269 (RPMI); test: as above
Method: as §1

[24] = system: Saccharomyces cerevisiae ZIM 2558 (RPMI); test: as above
Method: as §1

[25] = system: Saccharomyces cerevisiae ZIM 2566 (RPMI); test: as above
Method: as §1

[26] = system: Candida glabrata ZIM 2344 (RPMI); test: Bliss independence sum of statistically significant ΔE (measured minus predicted growth inhibition) over checkerboard surface (fraction (sum of ΔE; 1 = 100%)); higher = more synergy
[27] = system: Candida glabrata ZIM 2365 (RPMI); test: as above
[28] = system: Candida glabrata ZIM 2369 (RPMI); test: as above
[29] = system: Candida glabrata ZIM 2382 (RPMI); test: as above
[30] = system: Candida glabrata ZIM 2385 (RPMI); test: as above
[31] = system: Candida glabrata ZIM 2389 (RPMI); test: as above
[32] = system: Saccharomyces cerevisiae ZIM 2247 (RPMI); test: as above
[33] = system: Saccharomyces cerevisiae ZIM 2255 (RPMI); test: as above
[34] = system: Saccharomyces cerevisiae ZIM 2269 (RPMI); test: as above
[35] = system: Saccharomyces cerevisiae ZIM 2558 (RPMI); test: as above
[36] = system: Saccharomyces cerevisiae ZIM 2566 (RPMI); test: as above
[37] = system: Saccharomyces cerevisiae ZIM 2260 (RPMI); test: FICI minimum (fractional inhibitory concentration index, Loewe) (dimensionless); higher = less synergy / more antagonism
Method: as §1

[38] = system: Saccharomyces cerevisiae ZIM 2260 (RPMI); test: FICI maximum (fractional inhibitory concentration index, Loewe) (dimensionless); higher = less synergy / more antagonism
Method: as §1

[39] = system: Saccharomyces cerevisiae ZIM 2260 (RPMI); test: Bliss independence sum of statistically significant ΔE (measured minus predicted growth inhibition) over checkerboard surface (fraction (sum of ΔE; 1 = 100%)); higher = more synergy

## COc1c(C)c2c(c(O)c1C/C=C(\C)CCC(=O)O)C(=O)OC2 [mycophenolic acid] + C[C@@H](c1ncncc1F)[C@](O)(Cn1cncn1)c1ccc(F)cc1F [voriconazole]
[1]
  FICI minimum: 1.06
[2]
  FICI maximum: 2.5
[3]
  Bliss independence sum: -2.31

## CC1(C)S[C@@H]2[C@H](NC(=O)[C@H](N)c3ccc(O)cc3)C(=O)N2[C@H]1C(=O)O [amoxicillin] + OC(Cn1cncn1)(Cn1cncn1)c1ccc(F)cc1F [fluconazole]
[4]
  FICI minimum: 0.508
[5]
  FICI minimum: 1.01
[6]
  FICI minimum: 1.01
[7]
  FICI minimum: 1.01
[8]
  FICI minimum: 1.02
[9]
  FICI minimum: 1.02
[10]
  FICI minimum: 1.02
[11]
  FICI minimum: 2.01
[12]
  FICI minimum: 1.03
[13]
  FICI minimum: 0.508
[14]
  FICI minimum: 0.516
[15]
  FICI maximum: 0.75
[16]
  FICI maximum: 1.25
[17]
  FICI maximum: 1.25
[18]
  FICI maximum: 1.25
[19]
  FICI maximum: 1.5
[20]
  FICI maximum: 2.25
[21]
  FICI maximum: 2.12
[22]
  FICI maximum: 2.12
[23]
  FICI maximum: 2
[24]
  FICI maximum: 1.25
[25]
  FICI maximum: 1.25
[26]
  Bliss independence sum: 0.963
[27]
  Bliss independence sum: -0.019
[28]
  Bliss independence sum: 1.02
[29]
  Bliss independence sum: 0.34
[30]
  Bliss independence sum: 1.92
[31]
  Bliss independence sum: 2.98
[32]
  Bliss independence sum: -1.44
[33]
  Bliss independence sum: -2.93
[34]
  Bliss independence sum: -1.87
[35]
  Bliss independence sum: 1.93
[36]
  Bliss independence sum: 0.455

## COc1c(C)c2c(c(O)c1C/C=C(\C)CCC(=O)O)C(=O)OC2 [mycophenolic acid] + CC(=O)N1CCN(c2ccc(OCC3COC(Cn4ccnc4)(c4ccc(Cl)cc4Cl)O3)cc2)CC1 [ketoconazole]
[1]
  FICI minimum: 1.25
[2]
  FICI maximum: 4.12
[3]
  Bliss independence sum: -2.13

## COc1c(C)c2c(c(O)c1C/C=C(\C)CCC(=O)O)C(=O)OC2 [mycophenolic acid] + CC[C@@H]([C@H](C)O)n1ncn(-c2ccc(N3CCN(c4ccc(OC[C@@H]5CO[C@@](Cn6cncn6)(c6ccc(F)cc6F)C5)cc4)CC3)cc2)c1=O [posaconazole]
[1]
  FICI minimum: 1.5
[2]
  FICI maximum: 4.12
[3]
  Bliss independence sum: -3.21

## COc1c(C)c2c(c(O)c1C/C=C(\C)CCC(=O)O)C(=O)OC2 [mycophenolic acid] + CCC(C)n1ncn(-c2ccc(N3CCN(c4ccc(OCC5COC(Cn6cncn6)(c6ccc(Cl)cc6Cl)O5)cc4)CC3)cc2)c1=O [itraconazole]
[4]
  FICI minimum: 0.174
[5]
  FICI minimum: 0.516
[6]
  FICI minimum: 1.01
[7]
  FICI minimum: 0.508
[8]
  FICI minimum: 0.508
[9]
  FICI minimum: 0.508
[10]
  FICI minimum: 1.02
[11]
  FICI minimum: 0.517
[37]
  FICI minimum: 1
[12]
  FICI minimum: 1.03
[13]
  FICI minimum: 2.01
[15]
  FICI maximum: 1.62
[16]
  FICI maximum: 4.12
[17]
  FICI maximum: 2.25
[18]
  FICI maximum: 0.75
[19]
  FICI maximum: 1.02
[20]
  FICI maximum: 1.25
[21]
  FICI maximum: 2.53
[22]
  FICI maximum: 1.13
[38]
  FICI maximum: 2.16
[23]
  FICI maximum: 1.25
[24]
  FICI maximum: 4.25
[26]
  Bliss independence sum: 10
[27]
  Bliss independence sum: 0.327
[28]
  Bliss independence sum: -0.825
[29]
  Bliss independence sum: 0.427
[30]
  Bliss independence sum: 3.12
[31]
  Bliss independence sum: 4.83
[32]
  Bliss independence sum: -0.0362
[33]
  Bliss independence sum: 2.31
[39]
  Bliss independence sum: -2.11
[34]
  Bliss independence sum: 0.69
[35]
  Bliss independence sum: -4.07
